Data reported in patent publication US6329531A, “Optical diagnostic agents for diagnosis of neurodegenerative diseases by means of near infrared radiation (NIR radiation)” (Schering AG, priority 1996, dated 2001).
Counter-ions that a name gives are not always drawn.

Test: Absorption and fluorescence maxima of the dye in water
Type: physicochemical
Conditions: H2O

SMILES | λMax.absorption (H2 O) [nm] | λMax.fluorescence (H2 O) [nm]
CC1(C)C(=CC=CC=CC=CC2=[N+](CCCCS(=O)(=O)[O-])c3ccc(C(=O)NCC(COS(=O)(=O)O)OS(=O)(=O)O)cc3C2(C)C)N(CCCCS(=O)(=O)O)c2ccccc21 (stereo not shown) [Example 1, N-(2,3-disulfato)propyl-1,1'-bis-(4-sulfobutyl)indotricarbocyanine-5-carboxylic acid amide, trisodium salt] | 746 | 780
CC1(C)C(=CC=CC=CC=CC2=[N+](CCCCS(=O)(=O)[O-])c3ccc(C(=O)N[C@H]4C(O)O[C@H](CO)[C@@H](O)[C@@H]4OS(=O)(=O)O)cc3C2(C)C)N(CCCCS(=O)(=O)O)c2ccccc21 (stereo partly drawn) [Example 2, Bis-1,1'-(4-Sulfobutyl)indotricarbocyanine-5-carboxylic acid-α-D-glucosamide-3"-sulfate, disodium salt] | 745 | 779
CC1(C)C(=CC=CC=CC=CC2=[N+](CCCCS(=O)(=O)[O-])c3ccc(C(=O)N[C@H]4C(O)O[C@H](CO)[C@@H](O)[C@@H]4OS(=O)(=O)O)cc3C2(C)C)N(CCCCS(=O)(=O)O)c2ccc(C(=O)N[C@H]3C(O)O[C@H](CO)[C@@H](O)[C@@H]3OS(=O)(=O)O)cc21 (stereo partly drawn) [Example 3, Bis-1,1'-(4-Sulfobutyl)indotricarbocyanine-5,5'-dicarboxylic acid-di-α-D-glucosamide-di-3"-sulfate, trisodium salt] | 754 | 790
CC1(C)C(=CC=CC=CC=CC2=[N+](CCCCS(=O)(=O)[O-])c3ccc(C(=O)N[C@H]4C(O)O[C@H](CO)[C@H](O)[C@@H]4O[C@@H]4O[C@H](C(=O)O)[C@@H](O)[C@H](O)[C@H]4O)cc3C2(C)C)N(CCCCS(=O)(=O)[O-])c2ccccc21.[Na+] (stereo partly shown) [Example 4, N-Chondrosin-bis-1,1'-(4-sulfobutyl)indotricarbocyanine-5-carboxylic acid amide, sodium salt] | 746 | 779
CC1(C)C(=CC=CC=CC=CC2=[N+](CCCCS(=O)(=O)[O-])c3ccc(C(=O)NC4OC(CO)C(OC5OC(CO)C(OC6OC(CO)C(O)C(O)C6O)C(O)C5O)C(O)C4O)cc3C2(C)C)N(CCCCS(=O)(=O)O)c2ccccc21 (stereo not shown) [Example 5] | 748 | 779
